Measured values: ChEMBL document CHEMBL3885861, “Open TG-GATES”

Organism: Rattus norvegicus
Experiment: Open TG-GATES - Regimen: Daily Repeat
Type: toxicity, organism-based, Sprague-Dawley
Set-up: regimen Daily Repeat, gender Male, age 6 weeks
Settings: in vivo, po, 300 mg/kg, route gavage, dose level Middle; for APTT / Bas / Eos / Fbg / Hb / Ht / Lym / MCH / MCHC / MCV / Mono / Neu / PT / Plat / RBC / Ret / WBC: tissue Blood; for KIDNEY_L / KIDNEY_R / KIDNEY_TOTAL: tissue Kidney; for LIVER: tissue Liver; for A/G / ALP / ALT / AST / BUN / CRE / Ca / Cl / DBIL / GLC / IP / K / LDH / Na / PL / RALB / TBIL / TC / TG / TP / gamma-GTP: tissue Plasma

O=C(N[C@H](CO)[C@H](O)c1ccc([N+](=O)[O-])cc1)C(Cl)Cl [CHLORAMPHENICOL]
TERMINAL_BW (72 h, time 3 day): 251.2 g | APTT (72 h, time 3 day): 16.2 s | Bas (72 h, time 3 day): 0% | Eos (72 h, time 3 day): 1% | Fbg (72 h, time 3 day): 294.6 mg/dL | Hb (72 h, time 3 day): 13.3 g/dL | Ht (72 h, time 3 day): 40.8% | Lym (72 h, time 3 day): 83.4% | MCH (72 h, time 3 day): 21.2 pg | MCHC (72 h, time 3 day): 32.6% | MCV (72 h, time 3 day): 65.1 fL | Mono (72 h, time 3 day): 3.4% | Neu (72 h, time 3 day): 11.6% | PT (72 h, time 3 day): 14.4 s | Plat (72 h, time 3 day): 128.6 x10_4/uL | RBC (72 h, time 3 day): 627.6 x10_4/ul | Ret (72 h, time 3 day): 4.4% | WBC (72 h, time 3 day): 77.4 x10_2/uL | KIDNEY_L (72 h, time 3 day): 1.1 g | KIDNEY_R (72 h, time 3 day): 1.1 g | KIDNEY_TOTAL (72 h, time 3 day): 2.1 g | LIVER (72 h, time 3 day): 12.1 g | A/G (72 h, time 3 day): 0.9 | ALP (72 h, time 3 day): 1601.8 IU/L | ALT (72 h, time 3 day): 49.4 IU/L | AST (72 h, time 3 day): 72.8 IU/L | BUN (72 h, time 3 day): 16.6 mg/dL | CRE (72 h, time 3 day): 0.2 mg/dL | Ca (72 h, time 3 day): 10.9 mg/dL | Cl (72 h, time 3 day): 105.6 meq/L | DBIL (72 h, time 3 day): 0.01 mg/dL | GLC (72 h, time 3 day): 169.2 mg/dL | IP (72 h, time 3 day): 7.6 mg/dL | K (72 h, time 3 day): 4.2 meq/L | LDH (72 h, time 3 day): 84.2 IU/L | Na (72 h, time 3 day): 141.2 meq/L | PL (72 h, time 3 day): 150.4 mg/dL | RALB (72 h, time 3 day): 2.6 g/dL | TBIL (72 h, time 3 day): 0.052 mg/dL | TC (72 h, time 3 day): 88.4 mg/dL | TG (72 h, time 3 day): 66.6 mg/dL | TP (72 h, time 3 day): 5.6 g/dL | gamma-GTP (72 h, time 3 day): 1 IU/L | TERMINAL_BW ([…], time 7 day): 277.3 g | TERMINAL_BW ([…], time 14 day): 349.1 g | TERMINAL_BW ([…], time 28 day): 411.6 g | APTT ([…], time 7 day): 16.9 s | Bas ([…], time 7 day): 0% | Eos ([…], time 7 day): 1% | Fbg ([…], time 7 day): 324 mg/dL | Hb ([…], time 7 day): 13.7 g/dL | Ht ([…], time 7 day): 42.3% | Lym ([…], time 7 day): 78.2% | MCH ([…], time 7 day): 20.5 pg | MCHC ([…], time 7 day): 32.4% | MCV ([…], time 7 day): 63.3 fL | Mono ([…], time 7 day): 3.6% | Neu ([…], time 7 day): 17% | PT ([…], time 7 day): 14.5 s | Plat ([…], time 7 day): 120.6 x10_4/uL | RBC ([…], time 7 day): 668.6 x10_4/ul | Ret ([…], time 7 day): 4.8% | WBC ([…], time 7 day): 66.9 x10_2/uL | APTT ([…], time 14 day): 14.9 s | Bas ([…], time 14 day): 0% | Eos ([…], time 14 day): 1.4% | Fbg ([…], time 14 day): 307 mg/dL | Hb ([…], time 14 day): 14.2 g/dL | Ht ([…], time 14 day): 43.7% | Lym ([…], time 14 day): 84.8% | MCH ([…], time 14 day): 20.5 pg | MCHC ([…], time 14 day): 32.5% | MCV ([…], time 14 day): 63.1 fL | Mono ([…], time 14 day): 2.2% | Neu ([…], time 14 day): 11.4% | PT ([…], time 14 day): 14.8 s | Plat ([…], time 14 day): 123.5 x10_4/uL | RBC ([…], time 14 day): 692.8 x10_4/ul | Ret ([…], time 14 day): 4.7% | WBC ([…], time 14 day): 80 x10_2/uL | APTT ([…], time 28 day): 15.7 s | Bas ([…], time 28 day): 0% | Eos ([…], time 28 day): 1.2% | Fbg ([…], time 28 day): 296.2 mg/dL | Hb ([…], time 28 day): 15.1 g/dL | Ht ([…], time 28 day): 44.3% | Lym ([…], time 28 day): 86.8% | MCH ([…], time 28 day): 19.7 pg | MCHC ([…], time 28 day): 34.1% | MCV ([…], time 28 day): 57.8 fL | Mono ([…], time 28 day): 1% | Neu ([…], time 28 day): 10% | PT ([…], time 28 day): 14.7 s | Plat ([…], time 28 day): 110.4 x10_4/uL | RBC ([…], time 28 day): 768.8 x10_4/ul | Ret ([…], time 28 day): 2.1% | WBC ([…], time 28 day): 69.9 x10_2/uL | KIDNEY_L ([…], time 7 day): 1.2 g | KIDNEY_R ([…], time 7 day): 1.2 g | KIDNEY_TOTAL ([…], time 7 day): 2.4 g | KIDNEY_L ([…], time 14 day): 1.3 g | KIDNEY_R ([…], time 14 day): 1.3 g | KIDNEY_TOTAL ([…], time 14 day): 2.6 g | KIDNEY_L ([…], time 28 day): 1.6 g | KIDNEY_R ([…], time 28 day): 1.5 g | KIDNEY_TOTAL ([…], time 28 day): 3.1 g | LIVER ([…], time 7 day): 14 g | LIVER ([…], time 14 day): 16.9 g | LIVER ([…], time 28 day): 18.5 g | A/G ([…], time 7 day): 0.9 | ALP ([…], time 7 day): 1464.2 IU/L | ALT ([…], time 7 day): 56.8 IU/L | AST ([…], time 7 day): 72.8 IU/L | BUN ([…], time 7 day): 15 mg/dL | CRE ([…], time 7 day): 0.2 mg/dL | Ca ([…], time 7 day): 11.3 mg/dL | Cl ([…], time 7 day): 106 meq/L | DBIL ([…], time 7 day): 0.02 mg/dL | GLC ([…], time 7 day): 181.2 mg/dL | IP ([…], time 7 day): 7.9 mg/dL | K ([…], time 7 day): 4 meq/L | LDH ([…], time 7 day): 58.4 IU/L | Na ([…], time 7 day): 144.8 meq/L | PL ([…], time 7 day): 148.8 mg/dL | RALB ([…], time 7 day): 2.7 g/dL | TBIL ([…], time 7 day): 0.054 mg/dL | TC ([…], time 7 day): 74 mg/dL | TG ([…], time 7 day): 102.4 mg/dL | TP ([…], time 7 day): 5.7 g/dL | gamma-GTP ([…], time 7 day): 1 IU/L | A/G ([…], time 14 day): 0.8 | ALP ([…], time 14 day): 1504.6 IU/L | ALT ([…], time 14 day): 51.8 IU/L | AST ([…], time 14 day): 75.2 IU/L | BUN ([…], time 14 day): 17.4 mg/dL | CRE ([…], time 14 day): 0.2 mg/dL | Ca ([…], time 14 day): 11.3 mg/dL | Cl ([…], time 14 day): 105.2 meq/L | DBIL ([…], time 14 day): 0.024 mg/dL | GLC ([…], time 14 day): 198.2 mg/dL | IP ([…], time 14 day): 7.1 mg/dL | K ([…], time 14 day): 4 meq/L | LDH ([…], time 14 day): 66.8 IU/L | Na ([…], time 14 day): 144 meq/L | PL ([…], time 14 day): 137.6 mg/dL | RALB ([…], time 14 day): 2.6 g/dL | TBIL ([…], time 14 day): 0.052 mg/dL | TC ([…], time 14 day): 63.4 mg/dL | TG ([…], time 14 day): 93.6 mg/dL | TP ([…], time 14 day): 5.8 g/dL | gamma-GTP ([…], time 14 day): 1 IU/L | A/G ([…], time 28 day): 0.8 | ALP ([…], time 28 day): 1176.8 IU/L | ALT ([…], time 28 day): 43 IU/L | AST ([…], time 28 day): 63.8 IU/L | BUN ([…], time 28 day): 15 mg/dL | CRE ([…], time 28 day): 0.2 mg/dL | Ca ([…], time 28 day): 10.8 mg/dL | Cl ([…], time 28 day): 105 meq/L | DBIL ([…], time 28 day): 0.024 mg/dL | GLC ([…], time 28 day): 172.8 mg/dL | IP ([…], time 28 day): 6.5 mg/dL | K ([…], time 28 day): 3.5 meq/L | LDH ([…], time 28 day): 49.2 IU/L | Na ([…], time 28 day): 144.6 meq/L | PL ([…], time 28 day): 141 mg/dL | RALB ([…], time 28 day): 2.8 g/dL | TBIL ([…], time 28 day): 0.064 mg/dL | TC ([…], time 28 day): 68 mg/dL | TG ([…], time 28 day): 69.4 mg/dL | TP ([…], time 28 day): 6.1 g/dL | gamma-GTP ([…], time 28 day): 1.2 IU/L
